Source: US6413953B1, “Pt(IV) antitumor agent” (AnorMED Inc., priority 1999, dated 2002)
Read-outs that look alike come from different tables or passages of the source.

Columns and labels:
[1] = Aqueous solubility at ambient conditions; assay type: physicochemical; conditions: for Aqueous Solubility / Ratio to Solubility of bis-butyrato-ammine-(cyclohexylamine)dichloro platinum (IV) / Ratio to Solubility of cis-ammine(2-methylpyridine)Dichloroplatinum (II) / Ratio to Solubility of cisplatin: ambient conditions
[2] = background statement; cited from earlier work
CH1 = experiment: Cell proliferation IC50, human cancer cell lines in culture; assay type: cell-based; conditions: CH1 cell line; for IC50: read-out: IC50 (50% decrease in cell proliferation); for (IC50-Pt(IV)/IC50-Pt(II)): vs cis-amminedichloro(2-methylpyridine)platinum(II)
Procedure: (§1) Compounds were tested against human cancer cell lines grown in cell culture according to established procedures (described by Holford, et al., British J. Cancer 1998 77(3) 366-373).

41MR = experiment: as above; assay type: cell-based; conditions: for resistance factor: 41MR vs 41M, in brackets; for IC50: read-out: IC50 (50% decrease in cell proliferation), 41MR cisplatin-resistant cell line; for (IC50-Pt(IV)/IC50-Pt(II)): 41MR cell line, vs cis-amminedichloro(2-methylpyridine)platinum(II)
Procedure: as §1

CH1R = experiment: as above; assay type: cell-based; conditions: for resistance factor: CH1R vs CH1, in brackets; for IC50: read-out: IC50 (50% decrease in cell proliferation), CH1R cisplatin-resistant cell line; for (IC50-Pt(IV)/IC50-Pt(II)): CH1R cell line, vs cis-amminedichloro(2-methylpyridine)platinum(II)
Procedure: as §1

A2780 = experiment: as above; assay type: cell-based; conditions: A2780 cell line; for IC50: read-out: IC50 (50% decrease in cell proliferation); for (IC50-Pt(IV)/IC50-Pt(II)): vs cis-amminedichloro(2-methylpyridine)platinum(II)
Procedure: as §1

2780R = experiment: as above; assay type: cell-based; conditions: for resistance factor: 2780R vs A2780, in brackets; for IC50: read-out: IC50 (50% decrease in cell proliferation), 2780R cisplatin-resistant cell line; for (IC50-Pt(IV)/IC50-Pt(II)): A2780R cell line, vs cis-amminedichloro(2-methylpyridine)platinum(II)
Procedure: as §1

41M = experiment: as above; assay type: cell-based; conditions: 41M cell line; for IC50: read-out: IC50 (50% decrease in cell proliferation); for (IC50-Pt(IV)/IC50-Pt(II)): vs cis-amminedichloro(2-methylpyridine)platinum(II)
Procedure: as §1

[3] = system: CH1 tumor containing xenografts; experiment: In vivo growth delay in CH1 tumor xenografts; conditions: administered at maximum tolerated dose
Source text: This is in contrast to the growth delay of 0.6 days, achieved with compound E (FIG. 1).

[4] = solubility ratio to cis-amminedichloro(2-methylpyridine)platinum(II)

| Compound | Aqueous Solubility [1] | Ratio to Solubility of bis-butyrato-ammine-(cyclohexylamine)dichloro platinum (IV) [1] | Ratio to Solubility of cis-ammine(2-methylpyridine)Dichloroplatinum (II) [1] | Ratio to Solubility of cisplatin [1] | IC50 (CH1) [µM] | resistance factor (41MR) | IC50 (41MR) [µM] | resistance factor (CH1R) | IC50 (CH1R) [µM] | IC50 (A2780) [µM] | resistance factor (2780R) | IC50 (2780R) [µM] | IC50 (41M) [µM] | growth delay [3] [days] | (IC50-Pt(IV)/IC50-Pt(II)) (CH1) | (IC50-Pt(IV)/IC50-Pt(II)) (41MR) | (IC50-Pt(IV)/IC50-Pt(II)) (CH1R) | (IC50-Pt(IV)/IC50-Pt(II)) (A2780) | (IC50-Pt(IV)/IC50-Pt(II)) (2780R) | (IC50-Pt(IV)/IC50-Pt(II)) (41M) | other results |
| --- | --- | --- | --- | --- | --- | --- | --- | --- | --- | --- | --- | --- | --- | --- | --- | --- | --- | --- | --- | --- | --- |
| [NH2][Pt]1([NH2])[O]C(=O)C2(CCC2)C(=O)[O]1 [carboplatin, diammine[1,1-cyclobutanedicarboxylato (2-)]-O,O′-platinum(II), reference compound] | 14 mg/mL | 70 | 20 | 14 | 1.3 | (2.7) | 8.8 | (4.5) | 6 | 1.8 | (14.4) | 25.9 | 3.3 | – | – | – | – | – | – | – | Aqueous Solubility [2]: 14 mg/mL |
| N.N.[Cl][Pt][Cl] [cisplatin, [PtCl2(NH3)2], reference compound] | – | – | – | – | 0.11 | (4.6) | 1.2 | (6.5) | 0.71 | 0.33 | (15.7) | 5.2 | 0.26 | 34 | – | – | – | – | – | – | – |
| CCCC(=O)[O][Pt]([NH2])([Cl])([Cl])([NH]C1CCCCC1)[O]C(=O)CCC [Compound G, bis-butyratoammine(cyclohexylamine)dichloroplatinum(IV), reference compound] | – | – | – | – | 0.0066 | (0.67) | 0.048 | (3.7) | 0.024 | – | – | – | 0.072 | – | – | – | – | – | – | – | – |
| CC(=O)[O][Pt]([Cl])([O]C(C)=O)[O]C(C)=O.Cc1ccccn1.N [Compound D] | 80 mg/mL | – | – | – | 46 | – | > 100 | (1.9) | 88 | 47 | – | > 100 | > 100 | – | – | – | – | – | – | – | – |
| Cc1ccccn1.N.[Cl-].[Cl-].[Pt+2] [cis-ammine(2-methylpyridine)dichloroplatinum(II), reference compound] | 0.7 mg/mL | 3.5 | 1 | 0.7 | 2.2 | (1.1) | 6 | (1) | 2.1 | 2.5 | (4.8) | 12 | 5.6 | – | – | – | – | – | – | – | – |
| ammine(chloro)trihydroxo(2-methylpyridine)platinum(IV) [Compound A] | – | – | – | – | 6 | (1.8) | 45 | (2) | 12 | 9.5 | (4.3) | 41 | 25 | 32.8 | 2.7 | 7.5 | 5.7 | 3.8 | 3.4 | 4.5 | – |
| CC(=O)[O][Pt]([NH2])([Cl])([Cl])([NH]C1CCCCC1)[O]C(C)=O [Compound F, bis-acetatoammine(cyclohexylamine)dichloroplatinum(IV), reference compound] | <1 mg/mL | <5 | <1.4 | <1 | – | (1.2) | 0.6 | (4) | 0.4 | 0.4 | (4.6) | 1.84 | 0.5 | – | – | – | – | – | – | – | – |
| CC(=O)[O][Pt]([OH])([Cl])[O]C(C)=O.Cc1ccccn1.N [Compound E] | 15 mg/mL | 75 | 21.4 | 15 | 18 | (1) | 78 | (2.6) | 46 | 10.5 | (5.9) | 62 | 78 | 0.6 | 8.2 | 13 | 21.9 | 4.2 | 5.2 | 13.9 | (SolPt(IV)/SolPt(II)) [1]: 21.4 |
| Cc1cccc[n+]1[Pt-2]([NH3+])([OH])([OH])([Cl])[Cl] [Compound B] | ˜5 mg/ml | 25 | 7.1 | 5 | 3.4 | (1.9) | 19 | (2.2) | 7.4 | 4.5 | (8) | 36 | 10 | – | 1.5 | 3.2 | 3.5 | 1.8 | 3.0 | 1.8 | (SolPt(IV)/SolPt(II)) [1, 4]: 7.1 |
| CC(=O)[O][Pt]([OH])([Cl])[O]C(C)=O.Cc1ccccn1.N [Compound C] | 20 mg/mL | 100 | 28.6 | 20 | 8.6 | (0.96) | 26 | (1.8) | 17 | 8.6 | (5.2) | 45 | 27 | – | 3.9 | 4.3 | 8.1 | 3.4 | 3.8 | 4.8 | (SolPt(IV)/SolPt(II)) [1, 4]: 28.6 |
